In ChEMBL document CHEMBL4304838, “Building Bridges in a Series of Estrogen Receptor Degraders: An Application of Metathesis in Medicinal Chemistry” (ACS Med Chem Lett, 2019):
Converted amounts (≈) assume the structure as drawn.

Legend:
[1] = Stability of the compound assessed as parent compound remaining in buffer at pH 7.4 measured after 3 days by 1H-NMR analysis; assay type: physicochemical; details: read-out: Stability
[2] = human, plasma
Description: Fraction unbound in human plasma by equilibrium dialysis method

in vitro [3] = details: rat, hepatocytes
in vitro [4] = details: human, hepatocytes
[5] = Stability of the compound assessed as parent compound remaining in buffer at pH 7.4 measured after 4 days by 1H-NMR analysis; assay type: physicochemical; details: read-out: Stability
Estrogen receptor [6] = biological target: T1, Estrogen receptor (Homo sapiens, UniProt P03372); experiment: biochemical
T1 sequence (P03372 whole entry): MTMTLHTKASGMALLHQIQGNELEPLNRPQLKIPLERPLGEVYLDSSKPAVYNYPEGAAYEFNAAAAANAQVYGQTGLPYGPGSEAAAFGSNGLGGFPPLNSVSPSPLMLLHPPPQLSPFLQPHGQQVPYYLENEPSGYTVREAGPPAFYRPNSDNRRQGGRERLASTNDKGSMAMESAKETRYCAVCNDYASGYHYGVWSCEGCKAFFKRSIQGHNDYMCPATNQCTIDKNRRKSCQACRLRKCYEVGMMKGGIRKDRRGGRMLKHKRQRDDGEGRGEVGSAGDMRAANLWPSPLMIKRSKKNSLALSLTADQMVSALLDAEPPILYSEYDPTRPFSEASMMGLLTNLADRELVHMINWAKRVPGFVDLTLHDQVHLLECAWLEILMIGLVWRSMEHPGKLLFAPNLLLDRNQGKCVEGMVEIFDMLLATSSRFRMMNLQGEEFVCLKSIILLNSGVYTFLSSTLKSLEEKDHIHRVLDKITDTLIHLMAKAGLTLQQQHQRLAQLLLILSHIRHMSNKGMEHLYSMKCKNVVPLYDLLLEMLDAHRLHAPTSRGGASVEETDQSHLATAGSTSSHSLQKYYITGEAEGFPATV
Description: Displacement of fluorescent labelled fluormone ES2 from human recombinant GST tagged ER alpha LBD ( 282 to 595 residues) expressed in baculovirus infected insect cells measured after 20 mins by TR-FRET Lanthascreen assay

Estrogen receptor [7] = biological target: T1, Estrogen receptor
Description: Induction of ERalpha degradation in human MCF7 cells assessed as downregulation of ER alpha receptor expression measured after 18 to 22 hrs by immunofluorescence assay

physchem = details: buffer, pH 7.4
[8] = Stability of the compound assessed as parent compound remaining in buffer at pH 7.4 measured after 8 days by 1H-NMR analysis; assay type: physicochemical; details: read-out: Stability
Cytochrome P450 2C9 = Cytochrome P450 2C9 (Homo sapiens, UniProt P11712); experiment: Inhibition of CYP2C9 (unknown origin); assay type: ADME
Cytochrome P450 2C19 = Cytochrome P450 2C19 (Homo sapiens, UniProt P33261); experiment: Inhibition of CYP2C19 (unknown origin); assay type: ADME
[9] = Base dissociation constant, pKa of the compound in potassium chloride at 20 degC by UV absorption analysis; assay type: physicochemical
[10] = Oral bioavailability in rat at 1 mg/kg; assay type: ADME, organism-based; details: in vivo
[11] = Acid dissociation constant, pKa of the compound in potassium chloride at 20 degC by UV absorption analysis; assay type: physicochemical
[12] = Volume of distribution at steady state in rat at 0.5 mg/kg, iv or 1 mg/kg, po; assay type: ADME, organism-based; details: in vivo, read-out: Vdss
Cytochrome P450 3A4 = Cytochrome P450 3A4 (Homo sapiens, UniProt P08684); experiment: Inhibition of CYP3A4 (unknown origin); assay type: ADME
[13] = Half-life in rat at 0.5 mg/kg, iv; assay type: ADME, organism-based; details: in vivo
[14] = Half-life in rat at 1 mg/kg, po; assay type: ADME, organism-based; details: in vivo
[15] = AUC in rat at 1 mg/kg, po; assay type: ADME, organism-based; details: in vivo
[16] = Plasma clearance in rat at 0.5 mg/kg, iv or 1 mg/kg, po; assay type: ADME, organism-based
Cytochrome P450 2D6 = Cytochrome P450 2D6 (Homo sapiens, UniProt P10635); experiment: Inhibition of CYP2D6 (unknown origin); assay type: ADME
Cytochrome P450 1A2 = biological target: T2, Cytochrome P450 1A2 (Homo sapiens, UniProt P05177); experiment: Inhibition of CYP1A2 (unknown origin); assay type: ADME
T2 sequence (P05177 whole entry): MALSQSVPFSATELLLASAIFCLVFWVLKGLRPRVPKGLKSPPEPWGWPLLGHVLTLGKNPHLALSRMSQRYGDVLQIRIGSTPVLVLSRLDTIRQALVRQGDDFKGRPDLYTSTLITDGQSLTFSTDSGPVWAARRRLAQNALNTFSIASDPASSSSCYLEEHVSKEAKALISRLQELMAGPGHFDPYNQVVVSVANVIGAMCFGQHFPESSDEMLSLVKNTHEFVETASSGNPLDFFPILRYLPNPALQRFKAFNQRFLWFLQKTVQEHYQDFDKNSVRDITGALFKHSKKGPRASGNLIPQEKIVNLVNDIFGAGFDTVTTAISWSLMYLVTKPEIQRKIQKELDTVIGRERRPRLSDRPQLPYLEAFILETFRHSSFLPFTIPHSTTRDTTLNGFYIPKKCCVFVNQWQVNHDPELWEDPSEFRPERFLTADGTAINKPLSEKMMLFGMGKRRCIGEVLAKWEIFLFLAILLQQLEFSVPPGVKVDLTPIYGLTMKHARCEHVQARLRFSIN

[17] = Aqueous solubility of the compound in phosphate buffer at pH 7.4 at 25 degC after 24 hrs; assay type: physicochemical

Cytochrome P450 3A4, sequence (P08684 whole entry): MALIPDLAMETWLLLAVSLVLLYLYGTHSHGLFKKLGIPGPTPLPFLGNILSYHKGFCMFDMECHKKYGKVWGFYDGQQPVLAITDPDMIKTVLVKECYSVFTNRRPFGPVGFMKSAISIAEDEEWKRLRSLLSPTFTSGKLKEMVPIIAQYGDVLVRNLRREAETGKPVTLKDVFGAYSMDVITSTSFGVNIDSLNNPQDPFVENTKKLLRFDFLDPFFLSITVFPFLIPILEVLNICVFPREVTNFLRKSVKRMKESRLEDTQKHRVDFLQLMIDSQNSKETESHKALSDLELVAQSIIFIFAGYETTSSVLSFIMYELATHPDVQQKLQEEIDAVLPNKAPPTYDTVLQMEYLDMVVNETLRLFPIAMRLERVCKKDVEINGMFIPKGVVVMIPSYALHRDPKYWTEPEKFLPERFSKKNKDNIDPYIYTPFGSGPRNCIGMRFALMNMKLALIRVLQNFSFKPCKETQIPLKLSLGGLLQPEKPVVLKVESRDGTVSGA
Cytochrome P450 2C9, sequence (P11712 whole entry): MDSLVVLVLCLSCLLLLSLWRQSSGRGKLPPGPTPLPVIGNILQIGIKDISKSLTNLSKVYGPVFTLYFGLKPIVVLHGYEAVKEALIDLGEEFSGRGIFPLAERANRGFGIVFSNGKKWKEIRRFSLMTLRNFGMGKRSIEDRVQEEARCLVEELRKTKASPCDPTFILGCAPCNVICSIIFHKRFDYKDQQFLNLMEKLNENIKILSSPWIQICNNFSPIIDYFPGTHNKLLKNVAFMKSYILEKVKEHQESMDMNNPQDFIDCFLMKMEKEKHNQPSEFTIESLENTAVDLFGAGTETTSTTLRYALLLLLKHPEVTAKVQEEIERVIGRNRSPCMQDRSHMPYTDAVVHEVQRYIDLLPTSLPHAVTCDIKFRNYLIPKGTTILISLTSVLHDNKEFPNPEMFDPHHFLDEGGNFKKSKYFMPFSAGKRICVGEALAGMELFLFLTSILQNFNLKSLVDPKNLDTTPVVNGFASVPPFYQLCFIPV
Cytochrome P450 2C19, sequence (P33261 whole entry): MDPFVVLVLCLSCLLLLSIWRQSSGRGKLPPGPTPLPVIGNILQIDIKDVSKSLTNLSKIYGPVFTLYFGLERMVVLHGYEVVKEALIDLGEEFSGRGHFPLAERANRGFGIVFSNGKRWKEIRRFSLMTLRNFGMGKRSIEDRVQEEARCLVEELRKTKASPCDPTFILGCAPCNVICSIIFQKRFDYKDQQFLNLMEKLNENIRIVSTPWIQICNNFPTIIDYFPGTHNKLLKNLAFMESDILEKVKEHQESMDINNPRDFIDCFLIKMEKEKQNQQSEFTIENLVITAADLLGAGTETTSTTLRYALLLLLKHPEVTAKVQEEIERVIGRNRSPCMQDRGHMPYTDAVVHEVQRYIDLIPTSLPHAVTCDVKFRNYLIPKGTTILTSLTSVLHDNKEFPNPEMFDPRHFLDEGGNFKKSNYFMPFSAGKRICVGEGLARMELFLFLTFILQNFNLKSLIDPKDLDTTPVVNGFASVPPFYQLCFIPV
Cytochrome P450 2D6, sequence (P10635 whole entry): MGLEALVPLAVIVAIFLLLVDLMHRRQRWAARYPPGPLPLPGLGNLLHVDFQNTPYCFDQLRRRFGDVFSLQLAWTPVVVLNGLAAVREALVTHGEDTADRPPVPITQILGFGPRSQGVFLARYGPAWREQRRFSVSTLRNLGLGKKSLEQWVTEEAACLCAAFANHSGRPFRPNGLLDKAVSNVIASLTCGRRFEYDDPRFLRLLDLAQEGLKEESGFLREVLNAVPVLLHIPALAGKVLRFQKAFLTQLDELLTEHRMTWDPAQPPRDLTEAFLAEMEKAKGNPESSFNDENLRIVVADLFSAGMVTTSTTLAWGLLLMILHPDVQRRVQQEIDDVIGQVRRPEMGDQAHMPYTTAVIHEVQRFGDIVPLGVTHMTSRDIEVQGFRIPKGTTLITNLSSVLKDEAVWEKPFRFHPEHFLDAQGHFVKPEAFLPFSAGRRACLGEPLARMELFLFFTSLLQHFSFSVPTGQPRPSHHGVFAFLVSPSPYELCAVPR

| Compound | Fu [2] | hepatocyte CLint (in vitro [3]) | hepatocyte CLint (in vitro [4]) | IC50 (Estrogen receptor [6]) | IC50 (Estrogen receptor [7]) | logD (physchem) | remaining at 192 h [8] | other results |
| --- | --- | --- | --- | --- | --- | --- | --- | --- |
| C[C@@H]1Cc2c([nH]c3ccccc23)[C@@H](c2c(F)cc(/C=C/C(=O)O)cc2F)N1CC(C)(C)F [AZD-9496] | 0.26% | 5 µL/min/1e6 cells | 31 µL/min/1e6 cells | – | – | – | – | remaining at 72 h [1]: 92% |
| C[C@@H]1Cc2c([nH]c3ccccc23)[C@@](C)(c2c(F)cc(/C=C/C(=O)O)cc2F)N1CC(C)(C)F | 0.28% | 9 µL/min/1e6 cells | 13 µL/min/1e6 cells | 0.398 nM | 1.26 nM | 2.7 | – | remaining at 96 h [5]: 58% |
| CC(C)(F)CN1[C@@H]2C=CC[C@@]1(c1c(F)cc(/C=C/C(=O)O)cc1F)c1[nH]c3ccccc3c1C2 | 0.3% | 8 µL/min/1e6 cells | 14 µL/min/1e6 cells | 0.631 nM | 1.58 nM | 2.8 | 100% | – |
| CC(C)(F)CN1[C@@H]2CCC[C@@]1(c1c(F)cc(/C=C/C(=O)O)cc1F)c1[nH]c3ccccc3c1C2 | 0.45% | 26 µL/min/1e6 cells | 8 µL/min/1e6 cells | 0.794 nM | 15.8 nM | 2.9 | – | remaining at 72 h [1]: 100%; IC50 (Cytochrome P450 2C9): > 30000 nM; IC50 (Cytochrome P450 2C19): > 30000 nM; pKa [9]: 5.7; bioavailability [10]: 100%; pKa [11]: 3.8; Vd [12]: 1.6 L/kg; IC50 (Cytochrome P450 3A4): > 30000 nM; half-life [13]: 2.8 h; half-life [14]: 3.1 h; AUC [15]: 2.7 µM·h; clearance [16]: 10 mL/min/kg; IC50 (Cytochrome P450 2D6): > 30000 nM; IC50 (Cytochrome P450 1A2): > 30000 nM; solubility at 24 h [17]: 734 µM (≈ 344 µg/mL) |

Continued, in another order:

| Fu [2] | hepatocyte CLint (in vitro [3]) | hepatocyte CLint (in vitro [4]) | IC50 (Estrogen receptor [6]) | IC50 (Estrogen receptor [7]) | logD (physchem) | remaining at 192 h [8] | Compound | other results |
| --- | --- | --- | --- | --- | --- | --- | --- | --- |
| 0.17% | 17 µL/min/1e6 cells | 4 µL/min/1e6 cells | 2 nM | 2 nM | 5.3 | 100% | CC(C)(F)CN1[C@@H]2CCC[C@@]1(c1c(F)cc(OCCN3CC(CF)C3)cc1F)c1[nH]c3ccccc3c1C2 | – |
| – | – | < 1 µL/min/1e6 cells | – | – | > 4.4 | 100% | C[C@@H]1Cc2c([nH]c3ccccc23)[C@@H](c2c(F)cc(OCCN3CC(CF)C3)cc2F)N1CC(C)(C)F | – |
| 0.05% | 18 µL/min/1e6 cells | – | 1 nM | 0.251 nM | > 4.4 | 75% | C[C@@H]1Cc2c([nH]c3ccccc23)[C@@](C)(c2c(F)cc(OCCN3CC(CF)C3)cc2F)N1CC(C)(C)F | – |
